Measured values as given in patent publication US4148786A, “Analgesic polypeptide” (American Home Products Corporation, priority 1978, dated 1979).
Where “and” joins values, the source holds several entries; their conditions need not be identical. Equal entries are not always repeated. Where two headings read alike, the source gives them in different places. Where a SMILES comes first, the peptide text is derived from it. Bridges are numbered along the chain shown (N, C = ends). [ ]: non-standard residue; d: D form.

Legend:
male rats [1] = assay: rat-tail flick test of D'Amour and Smith; assay type: in vivo; details: for Positive Responses / Total Possible Responses: all time periods
Method: The holders were situated so that a high intensity light beam would shine on the tip of the rats tail. The light beam intensity was adjusted so that normal rats respond by removing their tails from the light stimulus within from 3 to 8 seconds. The average of three time readings for removal of a rats tail from the light beam, taken 20 minutes apart serves as a pre-drug control. The rats were selected for use based upon control readings that agreed within one second. The compounds of this invention were then administered intravenously and the test performed at 15, 30 and 60 minutes to determine the animals reaction time which was compared with the control average and tested for significance. The number of rats showing analgesia at each time period out of the total group for each dose administered is noted as a ratio and the number of positive responses observed is relative to the total number of challenges for each group of rats.

opiate receptor = opiate receptor binding affinity (method of Chang et al.); details: two assays
Method: The opiate receptor binding affinity of the compound of Example 2 was determined following the method of Chang et al., Life Sciences, 18, 1473-82(1976).

male rats [2] = assay: rat-tail flick test of D'Amour and Smith; assay type: in vivo
mice = details: central administration; cited from earlier work
[3] = administered peripherally; cited from earlier work
rats [4] = details: cited from earlier work; for analgesia: injection in the brain ventricle in rats
[5] = central administration; cited from earlier work
rats [6] = details: peripheral (i.v.); cited from earlier work

Compound | No. Analgesic / Total No. Tested (male rats [1]; 1 mg/kg iv, 15 minutes) | No. Analgesic / Total No. Tested (male rats [1]; 1 mg/kg iv, 30 minutes) | No. Analgesic / Total No. Tested (male rats [1]; 1 mg/kg iv, 60 minutes) | Comments: respiratory depression (male rats [1]; 5 mg/kg iv) | No. Analgesic / Total No. Tested (male rats [1]; 5 mg/kg iv, 15 minutes) | No. Analgesic / Total No. Tested (male rats [1]; 5 mg/kg iv, 60 minutes) | Positive Responses / Total Possible Responses (male rats [1]; 5 mg/kg iv) | Positive Responses / Total Possible Responses (male rats [2]; 1 mg/kg iv, all time periods) | No. Analgesic / Total No. Tested (male rats [2]; 5 mg/kg iv, 30 minutes) | also measured
NC(=O)[C@H]1CSSC[C@@H](NC(=O)[C@@H](N)Cc2ccc(O)cc2)C(=O)NCC(=O)N[C@@H](Cc2ccccc2)C(=O)N1 [Example 2, L-Tyrosyl-D-cysteinyl-glycyl-L-phenylalanyl-D-cysteinyl amide cyclic (2-5) disulfide] | 4/5 and 4/6 | 4/4 and 5/6 | 2/3 and 3/6 | 4/4 Respiration very depressed | 5/5 | 4/4 | 14/14 | 10/12 and 12/18 | 5/5 | No. Analgesic / Total No. Tested (male rats [1]; 0.5 mg/kg iv, 60 minutes): 1/6 and 2/6; displacement potency relative to morphine (opiate receptor): 100 times that of morphine and 109 times that of morphine; No. Analgesic / Total No. Tested (male rats [2]; 0.1 mg/kg iv, 15 minutes): 2/6; No. Analgesic / Total No. Tested (male rats [2]; 0.1 mg/kg iv, 30 minutes): 0/6; No. Analgesic / Total No. Tested (male rats [2]; 0.1 mg/kg iv, 60 minutes): 0/6; Positive Responses / Total Possible Responses (male rats [2]; 0.1 mg/kg iv, all time periods): 2/18; Comments: respiratory depression (male rats [2]; 0.5 mg/kg iv): 1/6 slight respiratory depression; No. Analgesic / Total No. Tested (male rats [2]; 0.5 mg/kg iv, 15 minutes): 3/6 and 4/6; No. Analgesic / Total No. Tested (male rats [2]; 0.5 mg/kg iv, 30 minutes): 2/6 and 3/6; Positive Responses / Total Possible Responses (male rats [2]; 0.5 mg/kg iv, all time periods): 6/10 and 9/18; Comments: dead (male rats [2]; 1 mg/kg iv): 3/6; Comments: respiratory depression (male rats [2]; 1 mg/kg iv): 2/3 severe respiratory depression and Slight depression; Comments: dead (male rats [2]; 5 mg/kg iv): 2/6; Positive Responses / Total Possible Responses (male rats [2]; 5 mg/kg s.c.): 7/24; No. Analgesic / Total No. Tested (male rats [2]; 5 mg/kg s.c., 15 minutes): 4/6
NC(=O)[C@@H]1CSSC[C@@H](NC(=O)[C@@H](N)Cc2ccc(O)cc2)C(=O)NCC(=O)N[C@@H](Cc2ccccc2)C(=O)N1 [Example 3, L-Tyrosyl-D-Cysteinyl-glycyl-L-phenylalanyl-L-cysteinyl amide cyclic (2-5) disulfide] | 4/6 | 2/6 | 1/6 | 3/6 moderate to severe respiratory | 6/6 | 4/6 | 15/18 | 7/18 | 5/6 | –
CN1C(=O)CNC(=O)[C@H](NC(=O)[C@@H](N)Cc2ccc(O)cc2)CSSC[C@H](C(N)=O)NC(=O)[C@@H]1Cc1ccccc1 [Example 4, L-Tyrosyl-D-cysteinyl-glycyl-N-methyl-L-phenylalanyl-D-cysteinylamide cyclic (2-5) disulfide] | – | – | – | 3/6 respiratory depression | 5/6 | 3/6 | 12/18 | – | 4/6 | –
N=C(N)NCCC[C@H](N)C(=O)N[C@@H](Cc1ccc(O)cc1)C(=O)N[C@@H]1CSSC[C@H](C(N)=O)NC(=O)[C@H](Cc2ccccc2)NC(=O)CNC1=O [Example 5, L-Arginyl-L-tyrosyl-D-cysteinyl-glycyl-L-phenylalanyl-D-cysteinylamide cyclic (3-6) disulfide] (H-RY[dC]GF[dC]-NH2; disulfide 3-6) | 4/6 | 3/6 | 2/6 | 3/5 respiratory depression | 6/6 | 5/5 | 16/16 | 9/18 | 5/5 | No. Analgesic / Total No. Tested (male rats [1]; 0.5 mg/kg iv, 60 minutes): 0/6; No. Analgesic / Total No. Tested (male rats [2]; 0.5 mg/kg iv, 15 minutes): 2/6; No. Analgesic / Total No. Tested (male rats [2]; 0.5 mg/kg iv, 30 minutes): 2/6; Positive Responses / Total Possible Responses (male rats [2]; 0.5 mg/kg iv, all time periods): 4/18; Comments: dead (male rats [2]; 5 mg/kg iv): 1
CN[C@@H](Cc1ccc(O)cc1)C(=O)N[C@@H]1CSSC[C@H](C(N)=O)NC(=O)[C@H](Cc2ccccc2)NC(=O)CNC1=O [Example 6, N-Methyl-L-tyrosyl-D-cysteinyl-glycyl-L-phenylalanyl-D-cysteinylamide cyclic (2-5) disulfide] | 6/6 | 5/6 | 3/6 | 3/3 respiratory depression | 6/6 | 3/3 | 13/13 | 14/18 | 4/4 | Comments: dead (male rats [2]; 5 mg/kg iv): 3
H-Tyr-D-Ala-Gly-Phe-D-Leu-OH | – | – | – | – | – | – | – | – | – | antinociceptive and behavioral effects (mice): exhibit antinociceptive and behavioral effects; analgesic activity on peripheral administration [3]: exhibit peripheral analgesic activity; antinociceptive and behavioral effects (rats [4]; central administration, rats): exhibit antinociceptive and behavioral effects
H-Tyr-D-Ala-Gly-Phe-D-Met-NH2 | – | – | – | – | – | – | – | – | – | analgesic activity (rats [4]; centrally administered, rats): produced analgesic activity
H-Tyr-D-Ala-Gly-Phe-Met-NH2 | – | – | – | – | – | – | – | – | – | analgesia [5]: long lasting analgesic
H-Tyr-Gly-Gly-Phe-Leu-OH [leucine-enkephalin] | – | – | – | – | – | – | – | – | – | analgesia (rats [4]): induce a profound analgesia
H-Tyr-Gly-Gly-Phe-Met-OH [methionine-enkephalin] | – | – | – | – | – | – | – | – | – | analgesia (rats [4]): induce a profound analgesia
H-Y[dM]GFP-NH2 | – | – | – | – | – | – | – | – | – | analgesic activity (rats [6]): peripheral (i.v.) analgesic activity
